These results are taken from patent US11992009B2, “Pesticide-containing soil disinfestation material without use of fumigant” (priority 2020, dated 2024).

Series [1] is described as follows: Lab soil pesticide release testing. The settings on record: for Pesticide content of fumigant-free soil disinfestation materials after set time on Soil: HPLC, LoQ 0.25 g/ha. Format: physicochemical. How it is done:
200 g of dry soil is placed in rectangular thin layer chromatography chamber of 27×7×26 cm with lid and 20 g water is added to the soil. A 58 cm^2 of a polymer composite material sample is placed on the humid soil and weight down by a glass plate with a contact pressure of […] to simulate similar contact conditions with the soil as in the field after application of the polymer composite material like a plastic mulch film. […]
After the set contact time with the soil the film sample is removed, moisture is dabbed off, loose dirt is brushed off and then the sample is dried at 60 C in an oven for 10 min. After drying the sample is cut into 100 small squares (each about 7.5 by 7.5 mm), placed in a small glass flask with 5 gram of Methanol and a magnetic stir bar. The flask is capped, stirred for 4 hours and the methanolic solution is then analyzed by HPLC. The difference between the initial and remaining amount of pesticide is released to the soil during the set time. The lowest concentration of analyte that can be determined with an acceptable repeatability and trueness by the method is 0.025 mg/m^2=0.25 g/ha Limit of quantitation (LoQ).

The conditions of series [2]: cited from earlier work.

Consider `N#Cc1c[nH]cc1-c1cccc2c1OC(F)(F)O2` [Fludioxonil], for which the “Pesticide content of fumigant-free soil disinfestation materials after set time on Soil” value stood at 244 g/ha in series [1] (Example 1 material, 0 days (initial content)); 57 g/ha in series [1] (Example 1 material, 7 days on humid soil); 23 g/ha in series [1] (Example 1 material, 14 days on humid soil); 0 g/ha in series [1] (Example 1 material, 21 days on humid soil); 244 g/ha in series [1] (Example 2 material, 0 days (initial content)); 53 g/ha in series [1] (Example 2 material, 7 days on humid soil). Also, the “Pesticide content of fumigant-free soil disinfestation materials after set time on Soil” value in series [1] (Example 2 material, 14 days on humid soil) came to 17 g/ha; in series [1] (Example 2 material, 21 days on humid soil) it was 0 g/ha. Also, the “Release from coated film in lab release test (FIG. 3)” value in series [1] (at 7, 14 and 21 days, before planting) is recorded as “complete release”. Further, the Water solubility entry in series [2] is reported as “hardly water soluble”.
In the case of `CCc1cccc(C)c1N(C(=O)CCl)[C@@H](C)COC` [s-metolachlor], the “Pesticide content of fumigant-free soil disinfestation materials after set time on Soil” value was determined as 800 g/ha in series [1] (Example 4 material, 0 days (initial content)); 5 g/ha in series [1] (Example 4 material, 7 days on humid soil); 0 g/ha in series [1] (Example 4 material, 14 days on humid soil); 0 g/ha in series [1] (Example 4 material, 21 days on humid soil).
